ChEMBL document CHEMBL4507315 (2021)

Legend:
[1] = molecular target: Tyrosine-protein kinase ABL1 (Homo sapiens) (UniProt P00519); conditions: Compound concentration 100.0 nM
[2] = molecular target: Activin receptor type-1 (Homo sapiens) (UniProt Q04771); conditions: Compound concentration 100.0 nM
[3] = tested on: ALK tyrosine kinase receptor (Homo sapiens), Q9UM73 [L1196M]; conditions: Compound concentration 100.0 nM
[4] = molecular target: 5'-AMP-activated protein kinase catalytic subunit alpha-1 (Homo sapiens) (UniProt Q13131); conditions: Compound concentration 100.0 nM
[5] = molecular target: Mitogen-activated protein kinase kinase kinase 6 (Homo sapiens) (UniProt O95382); conditions: Compound concentration 100.0 nM
[6] = molecular target: Peripheral plasma membrane protein CASK (Homo sapiens) (UniProt O14936); conditions: Compound concentration 100.0 nM
[7] = molecular target: Serine/threonine-protein kinase Chk2 (Homo sapiens) (UniProt O96017); conditions: Compound concentration 100.0 nM
[8] = molecular target: Dual specificity protein kinase CLK1 (Homo sapiens) (UniProt P49759); conditions: Compound concentration 100.0 nM
Chain of Dual specificity protein kinase CLK1 (Homo sapiens) (P49759 whole entry, looked up): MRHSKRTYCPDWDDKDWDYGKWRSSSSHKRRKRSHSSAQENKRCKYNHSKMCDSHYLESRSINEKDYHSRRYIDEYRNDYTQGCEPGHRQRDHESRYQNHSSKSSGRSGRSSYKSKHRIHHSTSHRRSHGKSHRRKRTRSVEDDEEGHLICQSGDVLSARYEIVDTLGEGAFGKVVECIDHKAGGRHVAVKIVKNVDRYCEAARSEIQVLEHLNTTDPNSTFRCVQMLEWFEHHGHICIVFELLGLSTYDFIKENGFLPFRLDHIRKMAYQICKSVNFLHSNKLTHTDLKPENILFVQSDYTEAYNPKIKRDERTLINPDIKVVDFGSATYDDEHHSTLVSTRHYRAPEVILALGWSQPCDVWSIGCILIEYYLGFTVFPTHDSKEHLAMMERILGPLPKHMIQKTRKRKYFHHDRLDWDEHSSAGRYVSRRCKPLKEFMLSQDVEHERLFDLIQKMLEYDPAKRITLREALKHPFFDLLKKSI

[9] = molecular target: Dual specificity protein kinase CLK2 (Homo sapiens) (UniProt P49760); conditions: Compound concentration 100.0 nM
[10] = molecular target: Casein kinase I isoform alpha (Homo sapiens) (UniProt P48729); conditions: Compound concentration 100.0 nM
[11] = molecular target: Casein kinase I isoform alpha-like (Homo sapiens) (UniProt Q8N752); conditions: Compound concentration 100.0 nM
[12] = molecular target: Casein kinase I isoform epsilon (Homo sapiens) (UniProt P49674); conditions: Compound concentration 100.0 nM
[13] = molecular target: Discoidin domain-containing receptor 2 (Homo sapiens) (UniProt Q16832); conditions: Compound concentration 100.0 nM
[14] = molecular target: Mitogen-activated protein kinase kinase kinase 12 (Homo sapiens) (UniProt Q12852); conditions: Compound concentration 100.0 nM
Chain of Mitogen-activated protein kinase kinase kinase 12 (Homo sapiens) (Q12852 whole entry): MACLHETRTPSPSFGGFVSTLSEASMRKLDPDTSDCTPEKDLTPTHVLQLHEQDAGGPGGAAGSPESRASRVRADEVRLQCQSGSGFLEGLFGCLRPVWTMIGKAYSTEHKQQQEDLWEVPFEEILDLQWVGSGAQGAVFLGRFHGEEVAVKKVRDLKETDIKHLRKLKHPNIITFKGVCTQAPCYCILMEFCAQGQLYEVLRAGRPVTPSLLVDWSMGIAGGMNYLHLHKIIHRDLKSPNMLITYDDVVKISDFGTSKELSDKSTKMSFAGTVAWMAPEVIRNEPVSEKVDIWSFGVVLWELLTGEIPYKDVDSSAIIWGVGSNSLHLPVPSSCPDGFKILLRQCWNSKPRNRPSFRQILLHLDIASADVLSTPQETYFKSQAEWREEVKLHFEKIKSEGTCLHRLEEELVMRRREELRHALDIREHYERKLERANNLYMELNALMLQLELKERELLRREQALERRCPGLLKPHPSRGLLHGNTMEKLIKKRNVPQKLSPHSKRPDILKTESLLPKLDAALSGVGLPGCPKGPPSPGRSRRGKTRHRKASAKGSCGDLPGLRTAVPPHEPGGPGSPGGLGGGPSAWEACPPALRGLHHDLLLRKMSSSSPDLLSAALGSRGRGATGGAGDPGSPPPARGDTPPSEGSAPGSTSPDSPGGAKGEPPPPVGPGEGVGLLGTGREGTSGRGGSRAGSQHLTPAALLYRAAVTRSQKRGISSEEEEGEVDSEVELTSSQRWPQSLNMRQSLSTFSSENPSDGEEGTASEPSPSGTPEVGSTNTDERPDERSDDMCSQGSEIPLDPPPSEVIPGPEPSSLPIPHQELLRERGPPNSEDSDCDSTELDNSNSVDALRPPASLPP

[15] = molecular target: Myotonin-protein kinase (Homo sapiens) (UniProt Q09013); conditions: Compound concentration 100.0 nM
[16] = molecular target: Receptor-type tyrosine-protein kinase FLT3 (Homo sapiens) (UniProt P36888); conditions: Compound concentration 100.0 nM
[17] = molecular target: Interleukin-1 receptor-associated kinase 4 (Homo sapiens) (UniProt Q9NWZ3); conditions: Compound concentration 100.0 nM
[18] = molecular target: Serine/threonine-protein kinase STK11 (Homo sapiens) (UniProt Q15831); conditions: Compound concentration 100.0 nM
[19] = molecular target: Mitogen-activated protein kinase kinase kinase kinase 5 (Homo sapiens) (UniProt Q9Y4K4); conditions: Compound concentration 100.0 nM
[20] = molecular target: MAP kinase-activated protein kinase 5 (Homo sapiens) (UniProt Q8IW41); conditions: Compound concentration 100.0 nM
[21] = molecular target: Serine/threonine-protein kinase MARK2 (Homo sapiens) (UniProt Q7KZI7); conditions: Compound concentration 100.0 nM
Chain of Serine/threonine-protein kinase MARK2 (Homo sapiens) (Q7KZI7 whole entry): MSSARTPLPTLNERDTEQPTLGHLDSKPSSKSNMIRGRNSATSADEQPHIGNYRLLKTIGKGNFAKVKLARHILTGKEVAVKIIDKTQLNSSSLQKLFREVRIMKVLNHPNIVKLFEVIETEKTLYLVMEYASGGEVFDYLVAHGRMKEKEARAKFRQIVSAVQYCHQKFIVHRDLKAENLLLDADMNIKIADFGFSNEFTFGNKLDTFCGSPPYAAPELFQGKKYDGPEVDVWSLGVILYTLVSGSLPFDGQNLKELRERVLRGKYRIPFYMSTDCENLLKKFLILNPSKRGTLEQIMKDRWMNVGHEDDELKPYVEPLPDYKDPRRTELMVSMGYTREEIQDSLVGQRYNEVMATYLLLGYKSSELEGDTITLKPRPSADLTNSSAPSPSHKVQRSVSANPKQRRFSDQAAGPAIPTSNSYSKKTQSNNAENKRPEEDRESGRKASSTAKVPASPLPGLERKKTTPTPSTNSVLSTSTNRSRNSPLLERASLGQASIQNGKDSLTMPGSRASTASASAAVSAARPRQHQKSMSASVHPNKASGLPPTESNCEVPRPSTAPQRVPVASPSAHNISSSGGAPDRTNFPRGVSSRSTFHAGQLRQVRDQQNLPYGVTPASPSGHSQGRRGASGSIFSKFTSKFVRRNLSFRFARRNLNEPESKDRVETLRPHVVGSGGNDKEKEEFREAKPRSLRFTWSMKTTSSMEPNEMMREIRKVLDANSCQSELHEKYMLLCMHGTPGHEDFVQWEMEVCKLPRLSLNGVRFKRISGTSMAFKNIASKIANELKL

[22] = molecular target: MAP/microtubule affinity-regulating kinase 4 (Homo sapiens) (UniProt Q96L34); conditions: Compound concentration 100.0 nM
[23] = molecular target: Dual specificity mitogen-activated protein kinase kinase 2 (Homo sapiens) (UniProt P36507); conditions: Compound concentration 100.0 nM
[24] = molecular target: Dual specificity mitogen-activated protein kinase kinase 3 (Homo sapiens) (UniProt P46734); conditions: Compound concentration 100.0 nM
[25] = molecular target: Serine/threonine-protein kinase 3 (Homo sapiens) (UniProt Q13188); conditions: Compound concentration 100.0 nM
Chain of Serine/threonine-protein kinase 3 (Homo sapiens) (Q13188 whole entry): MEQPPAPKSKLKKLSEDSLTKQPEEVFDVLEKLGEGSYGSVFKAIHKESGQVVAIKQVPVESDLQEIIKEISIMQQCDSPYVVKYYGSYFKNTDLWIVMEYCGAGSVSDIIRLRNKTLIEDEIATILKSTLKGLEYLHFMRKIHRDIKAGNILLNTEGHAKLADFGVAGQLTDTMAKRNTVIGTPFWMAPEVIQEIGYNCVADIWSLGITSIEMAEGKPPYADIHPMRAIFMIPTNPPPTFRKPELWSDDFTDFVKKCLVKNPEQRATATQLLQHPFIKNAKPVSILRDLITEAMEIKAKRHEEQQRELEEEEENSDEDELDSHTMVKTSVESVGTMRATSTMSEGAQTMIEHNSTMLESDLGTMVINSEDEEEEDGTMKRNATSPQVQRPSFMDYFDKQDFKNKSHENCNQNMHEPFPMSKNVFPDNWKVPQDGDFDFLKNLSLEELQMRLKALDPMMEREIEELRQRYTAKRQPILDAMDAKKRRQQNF

[26] = molecular target: Serine/threonine-protein kinase 26 (Homo sapiens) (UniProt Q9P289); conditions: Compound concentration 100.0 nM
[27] = molecular target: Myosin light chain kinase family member 4 (Homo sapiens) (UniProt Q86YV6); conditions: Compound concentration 100.0 nM
[28] = molecular target: Serine/threonine-protein kinase Nek7 (Homo sapiens) (UniProt Q8TDX7); conditions: Compound concentration 100.0 nM
[29] = molecular target: Cyclin-dependent kinase 17 (Homo sapiens) (UniProt Q00537); conditions: Compound concentration 100.0 nM
[30] = molecular target: Phosphatidylinositol 4,5-bisphosphate 3-kinase catalytic subunit beta isoform (Homo sapiens) (UniProt P42338); conditions: Compound concentration 100.0 nM
[31] = molecular target: Serine/threonine-protein kinase PLK1 (Homo sapiens) (UniProt P53350); conditions: Compound concentration 100.0 nM
[32] = molecular target: Serine/threonine-protein kinase PLK2 (Homo sapiens) (UniProt Q9NYY3); conditions: Compound concentration 100.0 nM
[33] = molecular target: Serine/threonine-protein kinase D1 (Homo sapiens) (UniProt Q15139); conditions: Compound concentration 100.0 nM
[34] = molecular target: cAMP-dependent protein kinase catalytic subunit PRKX (Homo sapiens) (UniProt P51817); conditions: Compound concentration 100.0 nM
Chain of cAMP-dependent protein kinase catalytic subunit PRKX (Homo sapiens) (P51817 whole entry): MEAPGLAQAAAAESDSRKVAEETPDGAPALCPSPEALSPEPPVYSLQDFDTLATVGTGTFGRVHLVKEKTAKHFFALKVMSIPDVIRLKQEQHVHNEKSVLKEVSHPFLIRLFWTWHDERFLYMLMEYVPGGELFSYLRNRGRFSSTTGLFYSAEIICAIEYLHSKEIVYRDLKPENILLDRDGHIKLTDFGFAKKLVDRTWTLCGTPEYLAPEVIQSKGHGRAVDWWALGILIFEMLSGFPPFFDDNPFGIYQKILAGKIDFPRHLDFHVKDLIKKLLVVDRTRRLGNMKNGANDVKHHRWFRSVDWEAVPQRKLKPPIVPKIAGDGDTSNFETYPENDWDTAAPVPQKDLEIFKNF

[35] = molecular target: Serine/threonine-protein kinase PRP4 homolog (Homo sapiens) (UniProt Q13523); conditions: Compound concentration 100.0 nM
[36] = molecular target: SRSF protein kinase 2 (Homo sapiens) (UniProt P78362); conditions: Compound concentration 100.0 nM
[37] = molecular target: Serine/threonine-protein kinase TBK1 (Homo sapiens) (UniProt Q9UHD2); conditions: Compound concentration 100.0 nM
Chain of Serine/threonine-protein kinase TBK1 (Homo sapiens) (Q9UHD2 whole entry): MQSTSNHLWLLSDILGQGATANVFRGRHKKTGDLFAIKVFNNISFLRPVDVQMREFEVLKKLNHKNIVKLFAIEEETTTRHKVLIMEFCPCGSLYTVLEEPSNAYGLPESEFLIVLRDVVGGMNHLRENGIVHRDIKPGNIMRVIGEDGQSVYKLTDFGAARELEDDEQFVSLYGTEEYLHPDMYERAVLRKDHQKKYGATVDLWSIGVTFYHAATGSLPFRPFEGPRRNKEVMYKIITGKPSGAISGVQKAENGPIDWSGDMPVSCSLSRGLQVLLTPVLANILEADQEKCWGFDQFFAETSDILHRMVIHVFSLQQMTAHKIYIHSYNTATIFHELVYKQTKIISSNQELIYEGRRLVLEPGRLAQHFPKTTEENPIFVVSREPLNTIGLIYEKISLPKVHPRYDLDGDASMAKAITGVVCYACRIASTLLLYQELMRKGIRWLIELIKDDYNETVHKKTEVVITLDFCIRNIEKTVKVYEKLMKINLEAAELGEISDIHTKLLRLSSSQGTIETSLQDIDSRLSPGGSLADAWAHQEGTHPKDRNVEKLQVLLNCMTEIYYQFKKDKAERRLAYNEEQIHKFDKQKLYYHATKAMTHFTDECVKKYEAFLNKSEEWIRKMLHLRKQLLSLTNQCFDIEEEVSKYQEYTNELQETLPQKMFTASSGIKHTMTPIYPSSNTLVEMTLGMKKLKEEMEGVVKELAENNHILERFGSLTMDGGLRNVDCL

[38] = molecular target: Serine/threonine-protein kinase tousled-like 1 (Homo sapiens) (UniProt Q9UKI8); conditions: Compound concentration 100.0 nM
Chain of Serine/threonine-protein kinase tousled-like 1 (Homo sapiens) (Q9UKI8 whole entry): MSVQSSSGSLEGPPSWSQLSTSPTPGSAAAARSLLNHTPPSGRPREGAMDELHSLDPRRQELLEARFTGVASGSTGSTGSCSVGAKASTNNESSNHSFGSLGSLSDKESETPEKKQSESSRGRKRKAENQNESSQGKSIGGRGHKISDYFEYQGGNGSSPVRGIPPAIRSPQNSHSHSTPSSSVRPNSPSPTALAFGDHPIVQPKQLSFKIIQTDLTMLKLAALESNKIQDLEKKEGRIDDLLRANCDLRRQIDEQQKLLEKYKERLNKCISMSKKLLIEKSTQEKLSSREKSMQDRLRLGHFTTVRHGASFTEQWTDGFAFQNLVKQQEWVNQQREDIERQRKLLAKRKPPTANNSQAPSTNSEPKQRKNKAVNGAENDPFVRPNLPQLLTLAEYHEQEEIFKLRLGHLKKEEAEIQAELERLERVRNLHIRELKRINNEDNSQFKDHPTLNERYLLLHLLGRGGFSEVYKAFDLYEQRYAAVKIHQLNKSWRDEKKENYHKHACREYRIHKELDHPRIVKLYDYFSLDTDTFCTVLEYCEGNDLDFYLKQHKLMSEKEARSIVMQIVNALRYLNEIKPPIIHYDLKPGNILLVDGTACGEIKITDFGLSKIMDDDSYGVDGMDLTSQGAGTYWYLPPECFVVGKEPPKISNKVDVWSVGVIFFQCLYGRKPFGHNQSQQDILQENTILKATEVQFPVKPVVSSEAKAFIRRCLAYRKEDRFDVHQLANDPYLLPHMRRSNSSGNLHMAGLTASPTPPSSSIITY

[39] = molecular target: Activated CDC42 kinase 1 (Homo sapiens) (UniProt Q07912); conditions: Compound concentration 100.0 nM
[40] = molecular target: Testis-specific serine/threonine-protein kinase 3 (Homo sapiens) (UniProt Q96PN8); conditions: Compound concentration 100.0 nM
[41] = molecular target: Serine/threonine-protein kinase ULK3 (Homo sapiens) (UniProt Q6PHR2); conditions: Compound concentration 100.0 nM
Chain of Serine/threonine-protein kinase ULK3 (Homo sapiens) (Q6PHR2 whole entry): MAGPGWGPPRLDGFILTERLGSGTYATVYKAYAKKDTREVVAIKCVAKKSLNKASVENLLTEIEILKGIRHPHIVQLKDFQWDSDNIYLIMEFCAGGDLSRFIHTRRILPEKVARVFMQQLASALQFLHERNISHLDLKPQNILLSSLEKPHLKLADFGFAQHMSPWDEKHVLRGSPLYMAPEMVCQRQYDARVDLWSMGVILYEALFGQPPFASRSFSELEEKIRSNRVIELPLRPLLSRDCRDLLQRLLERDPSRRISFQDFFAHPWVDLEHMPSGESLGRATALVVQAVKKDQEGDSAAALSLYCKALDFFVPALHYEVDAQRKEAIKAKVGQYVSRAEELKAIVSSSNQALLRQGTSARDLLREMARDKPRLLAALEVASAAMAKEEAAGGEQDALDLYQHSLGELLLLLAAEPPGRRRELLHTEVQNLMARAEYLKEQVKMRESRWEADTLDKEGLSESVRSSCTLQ

[42] = molecular target: Tyrosine-protein kinase Yes (Homo sapiens) (UniProt P07947); conditions: Compound concentration 100.0 nM
[43] = molecular target: D(1B) dopamine receptor (Homo sapiens) (UniProt P21918); conditions: Compound concentration 10.0 uM
[44] = molecular target: GABA-A receptor; anion channel (Rattus norvegicus) (UniProt O09028+P15431+P18506+P18508+P19969+P20236+P23574+P23576+P28471+P28473+P30191+P62813+P63079+P63138+Q91ZM7+Q9ES14); conditions: Compound concentration 10.0 uM

Nc1c(C(=O)NCc2ccc(C(=O)NCCCC3CCCCC3)cc2)cnn1-c1ccccc1 [SR-318]
inactive: residual activity [1] 81% | residual activity [2] 100% | residual activity [3] 100% | residual activity [4] 100% | residual activity [5] 100% | residual activity [6] 78% | residual activity [7] 88% | residual activity [8] 100% | residual activity [9] 100% | residual activity [10] 100% | residual activity [11] 98% | residual activity [12] 98% | residual activity [13] 56% | residual activity [14] 100% | residual activity [15] 77% | residual activity [16] 90% | residual activity [17] 100% | residual activity [18] 100% | residual activity [19] 100% | residual activity [20] 93% | residual activity [21] 65% | residual activity [22] 76% | residual activity [23] 100% | residual activity [24] 85% | residual activity [25] 100% | residual activity [26] 97% | residual activity [27] 100% | residual activity [28] 99% | residual activity [29] 78% | residual activity [30] 100% | residual activity [31] 100% | residual activity [32] 100% | residual activity [33] 100% | residual activity [34] 87% | residual activity [35] 100% | residual activity [36] 100% | residual activity [37] 96% | residual activity [38] 77% | residual activity [39] 89% | residual activity [40] 100% | residual activity [41] 100% | residual activity [42] 100% | inhibition [43] 28.4% | inhibition [44] 13.3%

O=C(NCCCC1CCCCC1)c1ccc(CNC(=O)c2cnn(-c3ccccc3)c2C(F)(F)F)cc1 [SR-321]
inactive: residual activity [1] 93% | residual activity [2] 100% | residual activity [3] 100% | residual activity [4] 100% | residual activity [5] 100% | residual activity [6] 100% | residual activity [7] 100% | residual activity [8] 96% | residual activity [9] 100% | residual activity [10] 99% | residual activity [11] 94% | residual activity [12] 100% | residual activity [13] 100% | residual activity [14] 100% | residual activity [15] 83% | residual activity [16] 87% | residual activity [17] 100% | residual activity [18] 100% | residual activity [19] 88% | residual activity [20] 100% | residual activity [21] 100% | residual activity [22] 98% | residual activity [23] 93% | residual activity [24] 100% | residual activity [25] 100% | residual activity [26] 93% | residual activity [27] 100% | residual activity [28] 97% | residual activity [29] 100% | residual activity [30] 100% | residual activity [31] 93% | residual activity [32] 100% | residual activity [33] 100% | residual activity [34] 100% | residual activity [35] 100% | residual activity [36] 100% | residual activity [37] 100% | residual activity [38] 100% | residual activity [39] 100% | residual activity [40] 100% | residual activity [41] 100% | residual activity [42] 100% | inhibition [43] 23.2% | inhibition [44] 14%
